Test results taken from ChEMBL document CHEMBL1201862, “PubChem BioAssay data set” (2004).
Active and inactive are the calls of the source.

Experiments:
BJ [1] = experiment: cells; format: functional, cell-based; conditions: Homo sapiens
BJ [2] = experiment: BJ-TERT-LT-ST fibroblast viability loss – cell-based, RAS-independent, luminescence, dose response (AID 1935); format: functional; conditions: Homo sapiens;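 note: BJ fibroblasts immortalized with TERT plus LT and ST oncogenes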
[3] = DRD fibroblast viability loss – cell-based, non-viral oncogenic, luminescence, dose response (AID 1934); format: functional; conditions: Homo sapiens
BJ [4] = experiment: BJ-TERT fibroblast viability loss – cell-based, RAS-independent, luminescence, dose response (AID 1933); format: functional; conditions: Homo sapiens
[5] = blockade of melanocortin 4 receptor signaling – cell-based, plate reader, cherry pick, counter-screen for LGR2 antagonist project, dose response (AID 743444); format: functional;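 note: transfected HEK 293 cells stimulated with alpha-MSH peptide; potency of inhibitors of the alpha-MSH evoked signal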
[6] = A549 cell cytotoxicity, dose response, cytotoxicity control, plate reader, cherry-pick, antagonist series (AID 743412); format: functional, cell-based
[7] = blockers of bursicon-stimulated LGR2 cAMP reporter – cell-based, HEK293, CRE-luciferase reporter, cherry pick, set 2, dose response (AID 743343); format: functional;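 note: transfected cells were stimulated with diluted bursicon conditioned medium after compound addition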
[8] = toxicity toward HepG2 liver cells – cell-based, plate reader, cherry-pick, antagonist series, cytotoxicity control, dose response (AID 743416); format: functional
[9] = intracellular Trypanosoma cruzi inhibitors in host cells – cell-based, plate reader, cherry-pick samples, set 3, dose response (AID 651818); format: functional;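 note: compounds incubated with infected cells for about four days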
[10] = viability loss in HEK293 cells – cell-based, plate reader, cherry-picked samples, cytotoxicity control, dose response (AID 743446); format: functional
Large T antigen = Large T antigen (Simian virus 40, UniProt P03070); format: functional, Betapolyomavirus macacae;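 note: Confirmatory-stage PubChem screen for compounds that inhibit SV40 T antigen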
Chain of Large T antigen (P03070 whole entry, the tested form may be a part): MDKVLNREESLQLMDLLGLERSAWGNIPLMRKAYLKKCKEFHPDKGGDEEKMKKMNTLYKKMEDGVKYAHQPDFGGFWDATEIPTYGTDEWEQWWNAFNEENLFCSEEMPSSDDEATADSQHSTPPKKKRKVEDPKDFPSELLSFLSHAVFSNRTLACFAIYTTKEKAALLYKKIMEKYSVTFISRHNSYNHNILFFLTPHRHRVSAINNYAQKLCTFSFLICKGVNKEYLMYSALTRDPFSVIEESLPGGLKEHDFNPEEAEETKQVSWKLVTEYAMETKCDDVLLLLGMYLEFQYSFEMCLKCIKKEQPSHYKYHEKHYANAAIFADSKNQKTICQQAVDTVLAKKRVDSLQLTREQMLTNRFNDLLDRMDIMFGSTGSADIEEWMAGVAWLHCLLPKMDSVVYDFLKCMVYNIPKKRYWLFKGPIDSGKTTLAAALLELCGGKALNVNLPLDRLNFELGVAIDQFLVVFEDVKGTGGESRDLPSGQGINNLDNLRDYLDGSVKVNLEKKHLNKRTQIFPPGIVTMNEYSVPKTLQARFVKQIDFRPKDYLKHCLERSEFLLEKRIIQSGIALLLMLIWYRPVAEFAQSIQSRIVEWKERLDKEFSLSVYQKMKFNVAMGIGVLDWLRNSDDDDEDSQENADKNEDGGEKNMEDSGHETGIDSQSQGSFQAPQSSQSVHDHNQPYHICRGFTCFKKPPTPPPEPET

[11] = blockers of HIV-1 ZM109 envelope-driven cell-cell fusion – HeLa effector, CEM target cells, luciferase, cherry-pick, dose response (AID 652058); format: functional, cell-based;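 note: luciferase signal from HIV-1 Env mediated cell-cell fusion of effector and target cells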
[12] = blockers of HIV-1 envelope-mediated cell-cell fusion – cherry-pick, dose response (AID 652057); format: functional, cell-based
[13] = HIV-1 AD8 envelope cell-cell fusion blockers – cherry-pick, dose response (AID 652062); format: functional, cell-based;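 note: luciferase signal from cell-cell fusion driven by HIV-1 clade B AD8 Env; potency is for inhibitors of fusion seen as a drop in luminescence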
Cytochrome P450 3A4 [14] = target: T1, Cytochrome P450 3A4 (Homo sapiens, UniProt P08684); conditions: Potency
T1 sequence (P08684 whole entry): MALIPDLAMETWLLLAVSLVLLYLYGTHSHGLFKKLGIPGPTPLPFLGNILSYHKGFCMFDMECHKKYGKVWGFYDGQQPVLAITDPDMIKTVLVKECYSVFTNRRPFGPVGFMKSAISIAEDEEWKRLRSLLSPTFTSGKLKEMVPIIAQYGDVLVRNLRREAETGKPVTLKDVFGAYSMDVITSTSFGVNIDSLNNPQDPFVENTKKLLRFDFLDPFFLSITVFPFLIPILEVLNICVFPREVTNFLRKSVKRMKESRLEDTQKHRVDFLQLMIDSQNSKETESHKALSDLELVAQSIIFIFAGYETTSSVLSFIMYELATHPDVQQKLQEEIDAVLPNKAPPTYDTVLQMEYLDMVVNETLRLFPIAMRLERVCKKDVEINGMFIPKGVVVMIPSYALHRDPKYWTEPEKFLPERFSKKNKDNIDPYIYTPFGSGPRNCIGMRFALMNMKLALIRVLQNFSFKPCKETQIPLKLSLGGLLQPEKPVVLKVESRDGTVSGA

[15] = target: T2, Rac GTPase-activating protein 1 (Homo sapiens, UniProt Q9H0H5); experiment: blockers of MgcRacGAP-driven Rac1 GTP hydrolysis – biochemical, ADP Hunter fluorescence, primary and confirmatory, confirmation (AID 624330); format: functional
T2 sequence (Q9H0H5 whole entry): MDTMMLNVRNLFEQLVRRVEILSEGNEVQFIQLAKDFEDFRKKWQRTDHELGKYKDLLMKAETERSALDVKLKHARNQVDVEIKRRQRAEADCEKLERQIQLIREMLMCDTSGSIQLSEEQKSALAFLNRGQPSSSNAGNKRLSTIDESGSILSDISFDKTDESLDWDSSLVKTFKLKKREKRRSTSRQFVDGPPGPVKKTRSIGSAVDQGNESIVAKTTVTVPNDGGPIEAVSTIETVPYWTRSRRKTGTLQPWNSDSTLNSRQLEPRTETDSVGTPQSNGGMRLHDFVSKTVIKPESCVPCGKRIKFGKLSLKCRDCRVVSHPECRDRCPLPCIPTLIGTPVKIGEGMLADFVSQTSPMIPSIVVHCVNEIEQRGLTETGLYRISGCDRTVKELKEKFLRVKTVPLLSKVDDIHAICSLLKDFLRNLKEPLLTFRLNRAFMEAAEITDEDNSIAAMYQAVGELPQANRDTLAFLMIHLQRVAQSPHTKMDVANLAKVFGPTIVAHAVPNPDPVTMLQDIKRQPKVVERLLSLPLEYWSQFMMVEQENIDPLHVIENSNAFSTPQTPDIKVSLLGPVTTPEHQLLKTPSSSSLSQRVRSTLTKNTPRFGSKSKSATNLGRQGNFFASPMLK

Cytochrome P450 2C19 = Cytochrome P450 2C19 (Homo sapiens, UniProt P33261); experiment: Cytochrome panel assay with activity outcomes. Panel member name: p450-cyp2c19 Compounds with AC50 equal or less than 10 uM are considered active; format: functional; conditions: read-out: AC50
Chain of Cytochrome P450 2C19 (P33261 whole entry): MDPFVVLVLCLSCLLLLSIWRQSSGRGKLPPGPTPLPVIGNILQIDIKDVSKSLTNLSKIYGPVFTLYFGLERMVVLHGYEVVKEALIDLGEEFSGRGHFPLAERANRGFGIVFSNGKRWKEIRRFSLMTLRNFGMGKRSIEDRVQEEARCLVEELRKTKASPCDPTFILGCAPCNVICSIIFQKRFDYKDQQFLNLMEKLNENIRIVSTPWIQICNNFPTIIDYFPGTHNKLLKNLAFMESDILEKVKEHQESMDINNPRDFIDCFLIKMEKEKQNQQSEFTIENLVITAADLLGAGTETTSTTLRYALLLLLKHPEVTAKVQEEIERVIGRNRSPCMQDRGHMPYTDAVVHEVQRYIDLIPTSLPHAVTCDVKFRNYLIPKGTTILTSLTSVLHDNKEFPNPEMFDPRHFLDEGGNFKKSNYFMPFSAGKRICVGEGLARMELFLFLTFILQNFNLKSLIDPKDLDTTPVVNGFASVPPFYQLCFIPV

Cytochrome P450 2C9 = Cytochrome P450 2C9 (Homo sapiens, UniProt P11712)
Chain of Cytochrome P450 2C9 (P11712 whole entry): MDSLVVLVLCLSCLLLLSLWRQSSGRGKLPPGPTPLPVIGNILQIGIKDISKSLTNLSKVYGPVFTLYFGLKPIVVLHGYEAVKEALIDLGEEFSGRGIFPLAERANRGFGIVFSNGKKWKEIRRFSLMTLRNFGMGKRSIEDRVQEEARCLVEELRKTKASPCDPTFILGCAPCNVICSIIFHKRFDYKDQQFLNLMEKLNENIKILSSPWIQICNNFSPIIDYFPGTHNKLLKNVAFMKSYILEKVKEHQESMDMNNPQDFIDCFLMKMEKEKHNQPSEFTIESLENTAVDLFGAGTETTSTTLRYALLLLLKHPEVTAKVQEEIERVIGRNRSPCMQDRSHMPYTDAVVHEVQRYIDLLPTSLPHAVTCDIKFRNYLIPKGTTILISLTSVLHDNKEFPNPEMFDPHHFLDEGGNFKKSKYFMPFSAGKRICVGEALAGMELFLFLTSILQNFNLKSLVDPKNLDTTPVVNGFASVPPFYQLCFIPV

Cytochrome P450 3A4 [16] = target: T1, Cytochrome P450 3A4
[17] = P. falciparum Dd2 growth inhibitors, dose response, SYBR Green, cherry-picked samples (AID 1159567); format: functional, cell-based
[18] = growth inhibition of yeast DHODH-expressing 3D7 parasites – SYBR Green, dry powder samples, dose response (AID 1159570); format: functional, cell-based;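 note: parasite growth measured after 72 hours of compound exposure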
[19] = Dd2 malaria parasite growth inhibition potency – SYBR Green, dry powder samples, dose response (AID 1159566); format: functional, cell-based;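 note: potency for growth inhibition with lower SYBR green DNA signal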
[20] = growth inhibition of PfATP4-mutant resistant parasites – NITD609-resistant line, SYBR Green, dry powder, dose response (AID 1159571); format: functional, cell-based;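 note: parasites synchronized at ring stage by sorbitol before testing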

Which results are given for Cc1ccc2cc(CN(Cc3ccco3)C(=O)c3cccs3)c(O)nc2c1?
EC50 (BJ [1]): 74.4 µM (active); EC50 (BJ [2]): 5.07 µM (active); EC50 [3]: 4.87 µM (active); EC50 (BJ [4]): 13 µM (active)

With COc1ccc(-c2cc3nc(NCC4CCCCC4)n(C)c(=O)c3s2)cc1OC as the compound, how does the AC50 [5] read?
The AC50 was 2.51 µM (active).

What about the AC50 [6] of the same compound?
The AC50 was 45.8 µM (active).

And the AC50 [7]?
Its AC50 is 12.8 µM (active).

And the AC50 [8]?
Its AC50 is > 52 µM (inactive).

With C[C@H](CO)N1C[C@H](C)[C@@H](CN(C)Cc2ccc3c(c2)OCO3)Oc2c(NC(=O)Nc3ccc(C(F)(F)F)cc3)cccc2C1=O as the compound, how does the AC50 [5] read?
Its AC50 is 11.9 µM (active).

And the AC50 [9]?
Its AC50 is 2.74 µM (active).

And the AC50 [6]?
Its AC50 is 25.6 µM (active).

And the AC50 [7]?
The AC50 was 19.6 µM (active).

What about the AC50 [10] of the same compound?
The AC50 was 17.3 µM (active).

And the AC50 [8]?
The AC50 was 21.2 µM (active).

Which AC50 [9] does the source give for C[C@H]1CN([C@@H](C)CO)C(=O)c2cccc(NC(=O)CCCCCC(=O)Nc3ccccc3N)c2O[C@@H]1CN(C)Cc1ccc2c(c1)OCO2 here?
The AC50 was 1.72 µM (active).

For C[C@@H]1CN([C@@H](C)CO)C(=O)c2cccc(NC(=O)c3ccc(-c4nccs4)cc3)c2O[C@H]1CN(C)Cc1ccc(Oc2ccccc2)cc1, which AC50 [9] is on record?
The AC50 was 3.03 µM (active).

Which AC50 [9] does the source give for COc1ccc(S(=O)(=O)Nc2ccc3c(c2)CC(=O)N([C@H](C)CO)C[C@@H](C)[C@@H](CN(C)S(=O)(=O)c2cccs2)O3)cc1 here?
The AC50 was 6.01 µM (active).

For C[C@@H]1CN([C@@H](C)CO)C(=O)Cc2cc(NS(=O)(=O)c3ccc(F)cc3)ccc2O[C@@H]1CN(C)Cc1ccc(Oc2ccccc2)cc1, which AC50 [9] is on record?
Its AC50 is 3.56 µM (active).

For Cc1cccc(C(=O)Nc2ccc(O)cc2)c1, which IC50 (Large T antigen) is on record?
The IC50 was 10.7 µM (active).

For CC(C)CC#Cc1ccc2c(c1)O[C@@H](CN(C)S(=O)(=O)c1cccc(F)c1)[C@@H](C)CN([C@H](C)CO)S2(=O)=O, which AC50 [11] is on record?
Its AC50 is 919 nM (active).

What about the AC50 [12] of the same compound?
Its AC50 is 5.91 µM (active).

And the AC50 [13]?
Its AC50 is 26.5 µM (active).

With COc1ccc(NC(=O)Nc2ccc3c(c2)C(=O)N([C@@H](C)CO)C[C@H](C)[C@H](CN(C)S(=O)(=O)c2ccc(OC)cc2)O3)cc1 as the compound, how does the AC50 [11] read?
The AC50 was 4380 nM (active).

What about the AC50 [12] of the same compound?
Its AC50 is 4.26 µM (active).

What about the AC50 [13] of the same compound?
Its AC50 is 17.5 µM (active).

Which AC50 (Cytochrome P450 3A4 [14]) does the source give for CCN1C[C@@]2(COC(=O)c3ccccc3N3C(=O)CC(C)C3=O)CC[C@H](OC)[C@]34C5C[C@H]6[C@@H](OC)C[C@@](O)(C5[C@H]6OC)C(O)(C13)[C@@H](OC)C24 (stereo not given in full) here?
The AC50 was 20 µM (inconclusive).

Which AC50 [5] does the source give for COc1ccccc1CCn1cnc(-c2ccccc2F)c1CC(C)C here?
Its AC50 is 18.9 µM (active).

What about the AC50 [6] of the same compound?
Its AC50 is 27 µM (active).

What about the AC50 [7] of the same compound?
The AC50 was 17.5 µM (active).

And the AC50 [10]?
The AC50 was > 52 µM (inactive).

And the AC50 [8]?
The AC50 was 27.2 µM (active).

Which AC50 [5] does the source give for OC(c1ccccc1)(c1ccccc1)C1CCN(CCCOc2cccc(C(F)(F)F)c2)CC1 here?
Its AC50 is 19.6 µM (active).

What about the AC50 [6] of the same compound?
Its AC50 is 9.53 µM (active).

And the AC50 [7]?
The AC50 was 21.7 µM (active).

What about the AC50 [10] of the same compound?
Its AC50 is 16.9 µM (active).

And the AC50 [8]?
The AC50 was 10.9 µM (active).

What does the source list for C/N=c1\scc(C)n1/N=C/c1cc(Br)c(O)c(OC)c1?
IC50 (Large T antigen): 5.8 µM (active); IC50 [15]: 14.4 µM (active)

Which results are given for CC12CCC(C(=O)Nc3ccccc3Br)(C/C1=N\O)C2(C)C (stereo not given)?
AC50 (Cytochrome P450 2C19): 31.6 µM (inconclusive); AC50 (Cytochrome P450 2C9): inconclusive; AC50 (Cytochrome P450 3A4 [16]): 20 µM (inconclusive)

For C[C@H]1CN([C@@H](C)CO)C(=O)c2c(c3ccccc3n2C)-c2ccccc2CO[C@@H]1CN(C)C(=O)Nc1cccc(C(F)(F)F)c1, which AC50 [17] is on record?
The AC50 was 1.13 µM (active).

And the AC50 [18]?
Its AC50 is 871 nM (active).

What about the AC50 [19] of the same compound?
Its AC50 is 442 nM (active).

What about the AC50 [20] of the same compound?
The AC50 was 376 nM (active).
